Laboratory results from ChEMBL document CHEMBL3632552, “Discovery of (phenoxy-2-hydroxypropyl)piperidines as a novel class of voltage-gated sodium channel 1.7 inhibitors” (Bioorg Med Chem Lett, 2015).

biological target: Sodium channel protein type 5 subunit alpha (Homo sapiens, UniProt Q14524); assay: Inhibition of human NaV1.5 by IonWorks quattro automated electrophysiology assay; conditions: not given

SMILES	IC50
O=C(c1ccccc1)c1ccccc1OCC(O)CN1CCN(c2cccc3[nH]c(=O)oc23)CC1 (stereo not drawn)	> 33 µM
O=C(c1ccccc1)c1ccccc1OCC(O)CN1CCC(N2C(=O)COc3ccccc32)CC1 (stereo not drawn)	5.2 µM
O=C(c1ccccc1)c1ccccc1OCC(O)CN1CCC(n2c(=O)oc3ccccc32)CC1 (stereo not drawn)	3.4 µM
O=C(c1ccccc1)c1ccccc1OCC(O)CN1CCC(N2C(=O)Cc3ccccc32)CC1 (stereo not drawn)	33 µM
O=C(c1ccccc1)c1ccccc1OCC(O)CN1CCC(N2Cc3ccccc3C2=O)CC1 (stereo not drawn)	24 µM
O=C(NC1CCN(CC(O)COc2ccccc2C(=O)c2ccccc2)CC1)c1ccccc1 (stereo not drawn)	4.9 µM
O=C(c1ccccc1)c1ccccc1OCC(O)CN1CCC(C(=O)Nc2ccccc2)CC1 (stereo not drawn)	1.9 µM
O=C(c1ccccc1)c1cccc(OCC(O)CN2CCC(N3Cc4ccccc4C3=O)CC2)c1 (stereo not drawn)	3.7 µM
O=C1c2ccccc2CN1C1CCN(CC(O)COc2ccccc2)CC1 (stereo not drawn)	38 µM
COc1ccccc1OCC(O)CN1CCC(N2Cc3ccccc3C2=O)CC1 (stereo not drawn)	77 µM
COc1cccc(OCC(O)CN2CCC(N3Cc4ccccc4C3=O)CC2)c1 (stereo not drawn)	10 µM
COc1ccc(OCC(O)CN2CCC(N3Cc4ccccc4C3=O)CC2)cc1 (stereo not drawn)	13 µM
O=C1c2ccccc2CN1C1CCN(CC(O)COc2ccccc2C(F)(F)F)CC1 (stereo not drawn)	7.1 µM

tested on: not listed separately; assay: AUC in CD mouse at 30 mg/kg, po; type: ADME, organism-based; conditions: in vivo

SMILES	AUC
O=C(c1ccccc1)c1ccccc1OCC(O)CN1CCC(N2Cc3ccccc3C2=O)CC1 (stereo not drawn)	18 ng·h/mL
O=C(c1ccccc1)c1cccc(OCC(O)CN2CCC(N3Cc4ccccc4C3=O)CC2)c1 (stereo not drawn)	525 ng·h/mL
COc1ccccc1OCC(O)CN1CCC(N2Cc3ccccc3C2=O)CC1 (stereo not drawn)	692 ng·h/mL

biological target: Sodium channel protein type 1 subunit alpha (Homo sapiens, UniProt P35498); assay: Inhibition of human NaV1.1 by IonWorks quattro automated electrophysiology assay; conditions: not given

SMILES	IC50
O=C(c1ccccc1)c1ccccc1OCC(O)CN1CCN(c2cccc3[nH]c(=O)oc23)CC1 (stereo not drawn)	> 33 µM
O=C(c1ccccc1)c1ccccc1OCC(O)CN1CCC(N2C(=O)COc3ccccc32)CC1 (stereo not drawn)	4.8 µM
O=C(c1ccccc1)c1ccccc1OCC(O)CN1CCC(n2c(=O)oc3ccccc32)CC1 (stereo not drawn)	5.4 µM
O=C(c1ccccc1)c1ccccc1OCC(O)CN1CCC(N2C(=O)Cc3ccccc32)CC1 (stereo not drawn)	26 µM
O=C(c1ccccc1)c1ccccc1OCC(O)CN1CCC(N2Cc3ccccc3C2=O)CC1 (stereo not drawn)	3.3 µM
O=C(NC1CCN(CC(O)COc2ccccc2C(=O)c2ccccc2)CC1)c1ccccc1 (stereo not drawn)	3.2 µM
O=C(c1ccccc1)c1ccccc1OCC(O)CN1CCC(C(=O)Nc2ccccc2)CC1 (stereo not drawn)	4.3 µM
O=C(c1ccccc1)c1cccc(OCC(O)CN2CCC(N3Cc4ccccc4C3=O)CC2)c1 (stereo not drawn)	0.92 µM
O=C1c2ccccc2CN1C1CCN(CC(O)COc2ccccc2)CC1 (stereo not drawn)	8 µM
COc1ccccc1OCC(O)CN1CCC(N2Cc3ccccc3C2=O)CC1 (stereo not drawn)	19 µM
COc1cccc(OCC(O)CN2CCC(N3Cc4ccccc4C3=O)CC2)c1 (stereo not drawn)	3 µM
COc1ccc(OCC(O)CN2CCC(N3Cc4ccccc4C3=O)CC2)cc1 (stereo not drawn)	2.7 µM
O=C1c2ccccc2CN1C1CCN(CC(O)COc2ccccc2C(F)(F)F)CC1 (stereo not drawn)	4.5 µM
Cc1cccc(C)c1OCC(C)N.Cl (stereo not drawn) [MEXILETINE HYDROCHLORIDE]	11 µM

tested on: Plasma; assay: Fraction unbound in mouse plasma; type: ADME, cell-free; conditions: not given

SMILES	Fu
O=C(c1ccccc1)c1cccc(OCC(O)CN2CCC(N3Cc4ccccc4C3=O)CC2)c1 (stereo not drawn)	1.99%

tested on: not listed separately; assay: Therapeutic index, ratio of toxic ID50 in mouse to analgesic activity ED50 in mouse; type: organism-based; conditions: in vivo, read-out: TI

SMILES	selectivity ratio
COc1ccccc1OCC(O)CN1CCC(N2Cc3ccccc3C2=O)CC1 (stereo not drawn)	2.9

tested on: Mus musculus; assay: Toxicity in po dosed mouse assessed as reduction of locomotor activity; type: organism-based; conditions: in vivo

SMILES	ID50
COc1ccccc1OCC(O)CN1CCC(N2Cc3ccccc3C2=O)CC1 (stereo not drawn)	20 mg/kg
Cc1cccc(C)c1OCC(C)N.Cl (stereo not drawn) [MEXILETINE HYDROCHLORIDE]	45 mg/kg

tested on: not listed separately; assay: Tmax in CD mouse at 30 mg/kg, po; type: ADME, organism-based; conditions: in vivo

SMILES	Tmax
O=C(c1ccccc1)c1ccccc1OCC(O)CN1CCC(N2Cc3ccccc3C2=O)CC1 (stereo not drawn)	30 min
O=C(c1ccccc1)c1cccc(OCC(O)CN2CCC(N3Cc4ccccc4C3=O)CC2)c1 (stereo not drawn)	30 min
COc1ccccc1OCC(O)CN1CCC(N2Cc3ccccc3C2=O)CC1 (stereo not drawn)	30 min

tested on: not listed separately; assay: Cmax in CD mouse at 30 mg/kg, po; type: ADME, organism-based; design: dose 30 mg/kg, route oral; conditions: in vivo

SMILES	Cmax
O=C(c1ccccc1)c1ccccc1OCC(O)CN1CCC(N2Cc3ccccc3C2=O)CC1 (stereo not drawn)	16 ng/mL
O=C(c1ccccc1)c1cccc(OCC(O)CN2CCC(N3Cc4ccccc4C3=O)CC2)c1 (stereo not drawn)	169 ng/mL
COc1ccccc1OCC(O)CN1CCC(N2Cc3ccccc3C2=O)CC1 (stereo not drawn)	467 ng/mL

biological target: Sodium channel protein type 9 subunit alpha (Homo sapiens, UniProt Q15858); assay: Inhibition of human NaV1.7 by IonWorks quattro automated electrophysiology assay; conditions: not given
Sequence (Q15858 whole entry): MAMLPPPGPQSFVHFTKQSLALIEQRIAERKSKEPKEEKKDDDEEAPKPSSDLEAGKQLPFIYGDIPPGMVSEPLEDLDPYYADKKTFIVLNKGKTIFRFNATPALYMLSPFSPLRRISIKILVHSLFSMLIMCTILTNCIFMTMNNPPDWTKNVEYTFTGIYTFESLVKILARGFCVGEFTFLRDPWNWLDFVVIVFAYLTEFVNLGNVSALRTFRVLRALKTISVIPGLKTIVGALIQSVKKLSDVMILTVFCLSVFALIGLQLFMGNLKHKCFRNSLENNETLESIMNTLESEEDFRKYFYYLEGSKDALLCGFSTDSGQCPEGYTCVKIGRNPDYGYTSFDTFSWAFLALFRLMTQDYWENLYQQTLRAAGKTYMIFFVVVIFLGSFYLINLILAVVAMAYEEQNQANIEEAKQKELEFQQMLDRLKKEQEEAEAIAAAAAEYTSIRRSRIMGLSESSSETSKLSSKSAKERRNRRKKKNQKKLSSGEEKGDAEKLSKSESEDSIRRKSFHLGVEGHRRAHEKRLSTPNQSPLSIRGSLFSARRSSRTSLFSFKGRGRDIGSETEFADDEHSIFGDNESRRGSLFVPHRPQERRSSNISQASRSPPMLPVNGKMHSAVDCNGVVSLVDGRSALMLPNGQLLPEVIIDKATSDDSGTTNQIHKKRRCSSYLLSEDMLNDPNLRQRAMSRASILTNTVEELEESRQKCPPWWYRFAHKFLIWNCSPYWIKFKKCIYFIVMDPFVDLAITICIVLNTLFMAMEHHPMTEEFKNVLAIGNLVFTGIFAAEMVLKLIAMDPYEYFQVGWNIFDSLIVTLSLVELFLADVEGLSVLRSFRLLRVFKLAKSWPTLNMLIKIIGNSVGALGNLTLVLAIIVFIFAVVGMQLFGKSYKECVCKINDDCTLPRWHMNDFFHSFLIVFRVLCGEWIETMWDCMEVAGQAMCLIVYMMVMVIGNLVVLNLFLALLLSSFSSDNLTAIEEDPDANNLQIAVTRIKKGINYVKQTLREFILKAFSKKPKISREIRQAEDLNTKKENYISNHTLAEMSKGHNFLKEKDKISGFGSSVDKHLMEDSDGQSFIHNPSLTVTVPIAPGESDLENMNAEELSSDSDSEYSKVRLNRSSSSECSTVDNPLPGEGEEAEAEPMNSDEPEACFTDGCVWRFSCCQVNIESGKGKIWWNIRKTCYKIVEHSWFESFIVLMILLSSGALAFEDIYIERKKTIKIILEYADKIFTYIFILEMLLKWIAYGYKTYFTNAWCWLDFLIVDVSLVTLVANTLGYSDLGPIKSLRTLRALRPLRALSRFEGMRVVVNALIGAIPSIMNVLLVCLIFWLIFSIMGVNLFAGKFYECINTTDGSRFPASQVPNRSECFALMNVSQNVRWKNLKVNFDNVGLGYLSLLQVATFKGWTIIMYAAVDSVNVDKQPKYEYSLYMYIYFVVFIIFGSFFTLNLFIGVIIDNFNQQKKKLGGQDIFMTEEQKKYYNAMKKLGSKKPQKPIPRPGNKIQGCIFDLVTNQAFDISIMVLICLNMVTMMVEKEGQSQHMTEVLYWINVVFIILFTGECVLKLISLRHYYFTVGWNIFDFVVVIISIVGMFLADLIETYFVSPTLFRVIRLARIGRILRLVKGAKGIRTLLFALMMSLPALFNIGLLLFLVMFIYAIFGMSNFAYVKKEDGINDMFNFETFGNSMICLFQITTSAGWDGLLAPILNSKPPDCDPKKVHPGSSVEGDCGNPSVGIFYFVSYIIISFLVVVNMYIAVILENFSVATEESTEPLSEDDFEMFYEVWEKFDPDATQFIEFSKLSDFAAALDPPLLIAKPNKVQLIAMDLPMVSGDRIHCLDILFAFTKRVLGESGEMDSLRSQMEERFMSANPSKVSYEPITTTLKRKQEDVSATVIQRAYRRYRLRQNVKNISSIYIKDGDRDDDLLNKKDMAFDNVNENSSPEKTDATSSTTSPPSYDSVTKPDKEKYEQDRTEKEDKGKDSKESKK

SMILES	IC50
O=C(c1ccccc1)c1ccccc1OCC(O)CN1CCN(c2cccc3[nH]c(=O)oc23)CC1 (stereo not drawn)	24 µM
O=C(c1ccccc1)c1ccccc1OCC(O)CN1CCC(N2C(=O)COc3ccccc32)CC1 (stereo not drawn)	1.1 µM
O=C(c1ccccc1)c1ccccc1OCC(O)CN1CCC(n2c(=O)oc3ccccc32)CC1 (stereo not drawn)	1.8 µM
O=C(c1ccccc1)c1ccccc1OCC(O)CN1CCC(N2C(=O)Cc3ccccc32)CC1 (stereo not drawn)	9.4 µM
O=C(c1ccccc1)c1ccccc1OCC(O)CN1CCC(N2Cc3ccccc3C2=O)CC1 (stereo not drawn)	1.5 µM
O=C(NC1CCN(CC(O)COc2ccccc2C(=O)c2ccccc2)CC1)c1ccccc1 (stereo not drawn)	1.1 µM
O=C(c1ccccc1)c1ccccc1OCC(O)CN1CCC(C(=O)Nc2ccccc2)CC1 (stereo not drawn)	1.2 µM
O=C(c1ccccc1)c1cccc(OCC(O)CN2CCC(N3Cc4ccccc4C3=O)CC2)c1 (stereo not drawn)	0.9 µM
O=C1c2ccccc2CN1C1CCN(CC(O)COc2ccccc2)CC1 (stereo not drawn)	3.4 µM
COc1ccccc1OCC(O)CN1CCC(N2Cc3ccccc3C2=O)CC1 (stereo not drawn)	5.3 µM
COc1cccc(OCC(O)CN2CCC(N3Cc4ccccc4C3=O)CC2)c1 (stereo not drawn)	1.4 µM
COc1ccc(OCC(O)CN2CCC(N3Cc4ccccc4C3=O)CC2)cc1 (stereo not drawn)	1.8 µM
O=C1c2ccccc2CN1C1CCN(CC(O)COc2ccccc2C(F)(F)F)CC1 (stereo not drawn)	2.8 µM

organism: Mus musculus; assay: Analgesic activity in mouse assessed as inhibition of acetic acid-induced writhing response; type: functional; conditions: not given

SMILES	ED50
COc1ccccc1OCC(O)CN1CCC(N2Cc3ccccc3C2=O)CC1 (stereo not drawn)	7 mg/kg
Cc1cccc(C)c1OCC(C)N.Cl (stereo not drawn) [MEXILETINE HYDROCHLORIDE]	21 mg/kg

biological target: Sodium channel protein type 1 subunit alpha (Mus musculus, UniProt A2APX8); assay: Inhibition of mouse NaV1.1 by IonWorks quattro automated electrophysiology assay; conditions: not given

SMILES	IC50
O=C(c1ccccc1)c1ccccc1OCC(O)CN1CCC(N2Cc3ccccc3C2=O)CC1 (stereo not drawn)	3.1 µM
O=C(c1ccccc1)c1cccc(OCC(O)CN2CCC(N3Cc4ccccc4C3=O)CC2)c1 (stereo not drawn)	0.69 µM
COc1ccccc1OCC(O)CN1CCC(N2Cc3ccccc3C2=O)CC1 (stereo not drawn)	34 µM
Cc1cccc(C)c1OCC(C)N.Cl (stereo not drawn) [MEXILETINE HYDROCHLORIDE]	21 µM

biological target: Sodium channel protein type 9 subunit alpha (Mus musculus, UniProt Q62205); assay: Inhibition of mouse NaV1.7 by IonWorks quattro automated electrophysiology assay; conditions: not given
Sequence (Q62205 whole entry): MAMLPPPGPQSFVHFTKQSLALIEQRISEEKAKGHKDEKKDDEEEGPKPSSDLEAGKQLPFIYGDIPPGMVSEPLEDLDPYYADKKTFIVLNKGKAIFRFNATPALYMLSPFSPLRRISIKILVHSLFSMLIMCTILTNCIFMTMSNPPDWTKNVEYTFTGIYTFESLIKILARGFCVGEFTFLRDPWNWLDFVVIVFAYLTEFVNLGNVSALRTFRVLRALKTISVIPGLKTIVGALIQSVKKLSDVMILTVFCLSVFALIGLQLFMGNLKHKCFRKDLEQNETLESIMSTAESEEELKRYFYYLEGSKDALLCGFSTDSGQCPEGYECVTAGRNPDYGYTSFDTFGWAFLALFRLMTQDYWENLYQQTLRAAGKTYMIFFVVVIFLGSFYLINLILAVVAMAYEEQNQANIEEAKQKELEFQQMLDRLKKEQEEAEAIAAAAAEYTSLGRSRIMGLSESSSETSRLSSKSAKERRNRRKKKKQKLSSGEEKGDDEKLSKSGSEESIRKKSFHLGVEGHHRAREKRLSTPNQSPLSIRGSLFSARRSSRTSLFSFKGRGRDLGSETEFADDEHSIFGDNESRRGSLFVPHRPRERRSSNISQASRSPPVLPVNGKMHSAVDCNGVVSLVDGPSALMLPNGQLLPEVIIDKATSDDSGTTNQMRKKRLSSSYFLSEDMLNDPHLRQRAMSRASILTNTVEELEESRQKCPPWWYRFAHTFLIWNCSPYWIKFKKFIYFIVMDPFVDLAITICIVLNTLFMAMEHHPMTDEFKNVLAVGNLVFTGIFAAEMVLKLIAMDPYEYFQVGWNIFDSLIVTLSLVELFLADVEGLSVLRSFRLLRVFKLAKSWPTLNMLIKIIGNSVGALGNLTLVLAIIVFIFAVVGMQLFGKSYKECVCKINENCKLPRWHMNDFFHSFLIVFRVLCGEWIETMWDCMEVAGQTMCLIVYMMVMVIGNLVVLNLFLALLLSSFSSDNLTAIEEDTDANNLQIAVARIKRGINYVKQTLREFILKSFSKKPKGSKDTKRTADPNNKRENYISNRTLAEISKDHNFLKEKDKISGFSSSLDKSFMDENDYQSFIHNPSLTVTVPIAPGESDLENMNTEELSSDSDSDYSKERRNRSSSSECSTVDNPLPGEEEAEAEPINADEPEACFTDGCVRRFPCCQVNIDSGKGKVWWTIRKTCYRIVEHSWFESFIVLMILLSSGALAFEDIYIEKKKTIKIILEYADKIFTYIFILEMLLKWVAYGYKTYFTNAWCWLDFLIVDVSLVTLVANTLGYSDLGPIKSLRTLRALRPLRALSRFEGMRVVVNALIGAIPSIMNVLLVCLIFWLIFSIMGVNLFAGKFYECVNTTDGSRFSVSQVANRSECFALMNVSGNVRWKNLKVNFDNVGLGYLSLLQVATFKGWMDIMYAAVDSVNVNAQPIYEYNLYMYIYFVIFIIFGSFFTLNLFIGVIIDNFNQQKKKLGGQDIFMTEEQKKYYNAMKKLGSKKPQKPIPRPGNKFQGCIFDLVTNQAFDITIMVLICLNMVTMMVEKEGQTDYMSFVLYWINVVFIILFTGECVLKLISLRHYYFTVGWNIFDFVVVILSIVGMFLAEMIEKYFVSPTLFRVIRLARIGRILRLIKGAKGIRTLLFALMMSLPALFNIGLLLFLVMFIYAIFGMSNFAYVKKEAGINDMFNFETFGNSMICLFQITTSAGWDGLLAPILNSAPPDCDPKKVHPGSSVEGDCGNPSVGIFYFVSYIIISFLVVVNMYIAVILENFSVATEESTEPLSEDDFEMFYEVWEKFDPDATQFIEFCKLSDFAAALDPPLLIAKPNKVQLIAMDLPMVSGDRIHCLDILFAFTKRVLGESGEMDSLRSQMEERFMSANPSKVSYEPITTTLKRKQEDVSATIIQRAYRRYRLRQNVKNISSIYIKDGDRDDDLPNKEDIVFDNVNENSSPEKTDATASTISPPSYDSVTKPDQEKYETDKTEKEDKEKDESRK

SMILES	IC50
O=C(c1ccccc1)c1ccccc1OCC(O)CN1CCN(c2cccc3[nH]c(=O)oc23)CC1 (stereo not drawn)	31 µM
O=C(c1ccccc1)c1ccccc1OCC(O)CN1CCC(N2C(=O)COc3ccccc32)CC1 (stereo not drawn)	1.3 µM
O=C(c1ccccc1)c1ccccc1OCC(O)CN1CCC(n2c(=O)oc3ccccc32)CC1 (stereo not drawn)	3.1 µM
O=C(c1ccccc1)c1ccccc1OCC(O)CN1CCC(N2C(=O)Cc3ccccc32)CC1 (stereo not drawn)	5 µM
O=C(c1ccccc1)c1ccccc1OCC(O)CN1CCC(N2Cc3ccccc3C2=O)CC1 (stereo not drawn)	1.2 µM
O=C(NC1CCN(CC(O)COc2ccccc2C(=O)c2ccccc2)CC1)c1ccccc1 (stereo not drawn)	0.92 µM
O=C(c1ccccc1)c1ccccc1OCC(O)CN1CCC(C(=O)Nc2ccccc2)CC1 (stereo not drawn)	1 µM
O=C(c1ccccc1)c1cccc(OCC(O)CN2CCC(N3Cc4ccccc4C3=O)CC2)c1 (stereo not drawn)	0.96 µM
O=C1c2ccccc2CN1C1CCN(CC(O)COc2ccccc2)CC1 (stereo not drawn)	5 µM
COc1ccccc1OCC(O)CN1CCC(N2Cc3ccccc3C2=O)CC1 (stereo not drawn)	4.8 µM
COc1cccc(OCC(O)CN2CCC(N3Cc4ccccc4C3=O)CC2)c1 (stereo not drawn)	0.91 µM
COc1ccc(OCC(O)CN2CCC(N3Cc4ccccc4C3=O)CC2)cc1 (stereo not drawn)	1.3 µM
O=C1c2ccccc2CN1C1CCN(CC(O)COc2ccccc2C(F)(F)F)CC1 (stereo not drawn)	4.8 µM
Cc1cccc(C)c1OCC(C)N.Cl (stereo not drawn) [MEXILETINE HYDROCHLORIDE]	11 µM
